Experimental data from US12115248B2, “Devices and methods for delivering methane inhibiting compounds to animals” (Ruminant Biotech Corp Limited, priority 2022, dated 2024).
Values joined by “and” are separate entries in the source; they are usually repeats but may differ in a detail not shown here. Equal values may be shown once. “Also recorded” adds a separate entry of the source. Read-outs that look alike come from different tables or passages of the source. Marks after values point to notes of the source that are not given here.

What was measured:
[1] = rats; cited from earlier work
[2] = Preliminary field trial (Example 14): dry matter intake, liveweight, blood samples; type: in vivo, heifers
Protocol: (§1) Liveweights of the animals were recorded prior to the first bolus administration and following each measurement period. Gas production of methane, hydrogen, and carbon dioxide was assessed every 3 min over a 48-hour period in respiration chambers using a 4900C Continuous Emission Analyser. […] Rumen fluid contents were sampled prior to bolus administration and following measurement periods in the respiration chambers. Rumen samples were assessed for pH and short-chain fatty acids (SCFAs) content, and were stored for bromoform residue analysis later on. Blood samples were collected 16 days prior to bolus administration, and on days 34 and 94 following the measurement periods. Blood samples were assessed biochemical constitution and for liver enzymes.
The data are combined for both feed types during measurement session 2. […]

[3] = mice; cited from earlier work
methane emissions [4] = test: Animal study (Example 3): gas emissions in respiration chambers; type: in vivo, dairy beef heifers
Protocol: An animal study was conducted to determine methane emissions from an animal implanted with a bolus of the disclosure. The experiment was designed as an unbalanced, completely randomized design with three treatments and three repeated measurements over time in three periods 8 to 12 weeks apart.
Nineteen dairy beef heifers (312±14 kg live weight), including three spare animals, were selected from a mob of 50 based on behaviour traits and liveweight from a research farm in the Manawatu, New Zealand. They were assigned to one of three treatments: a bolus containing no bromoform (CONTROL; n=4); a bolus releasing bromoform at a rate of about 300-400 mg/day (LOW, n=6); or a bolus releasing about 450-580 mg/day (HIGH, n=6). SmaXtec boluses were administered at the same time to monitor rumen temperature as an animal health monitor and to complement the weekly blood samples.
The heifers were transported from research farm to a testing centre for diet adaptation and gas measurements using respiration chambers. The heifers were adapted to the environment of the cattle yards and the fresh cut pasture for 7 days before receiving their allocated treatment bolus. Gas measurements started 13 days after the boluses were administrated. Each heifer was in the respiration chambers for 48 hours during the period of gas measurements, which took two weeks for four measurement groups. At the end of the measurements in respiration chambers, the animals were transported back to research farm.
Fermentation gases methane (CH4), carbon dioxide (CO2) and hydrogen (H2) were quantified in four open-circuit respiration chambers at the New Zealand Ruminant Methane Measurement Centre (AgResearch, Palmerston North, New Zealand). Each chamber is 15.4 m^3 (3.5 m long×2 m wide×2.2 m high) with an air flow rate of around 1.0 m^3/min, which was continuously monitored by measuring differential pressure using a Venturi flowmeter. Temperature inside respiration chambers was approximately 20° C. and the relative humidity was on average approximately 79%. All gases were measured at ˜2.8-min intervals using a 4900C Continuous Emission analyser (Servomex Group Ltd, East Sussex, UK) and daily production of each gas was calculated from the difference between concentration flowing in- and out of the chamber (Pinares-Patiño et al., 2012). Respiration chambers were opened twice daily (˜20 min each time) for cleaning, feeding, faecal sampling and feed refusal collection. No measurements were performed during the period when chambers were opened, and missing data were interpolated by taking the average of the last 12 values ([…]) before the doors were opened.
Data from the first period of gas measurements was analysed using the ‘predictmeans’ and ‘Ime4’ packages in the statistical software R 4.0.3 (R Core Team, 2020). Data for dry matter intake and gas emissions for each heifer were averaged across the two measurement days. Heifer served as the experimental unit. The mixed model included treatment as fixed effect and respiration chamber nested in measurement group as random effect.

[5] = after 48 hour with holding period; cited from earlier work
[6] = in vivo; cited from earlier work
methane emissions [7] = test: Preliminary field trial (Example 14): gas emission measurements in respiration chambers; type: in vivo, heifers
Protocol: The following preliminary field trial is an example of the methane inhibiting capabilities of the bolus invention in a live animal trial using recognised methane analysis techniques. The bolus used in the trial is outlined in Table 14 and the trial time schedule is outlined in Table 16.
Five different total bromoform doses across two different diets were tested, giving a total of ten treatments (Table 15). […] Within each dose group, half of the animals were fed baleage (baled cut and covered pasture), and the other half were adapted to a diet of fresh cut ryegrass (New Zealand fresh pasture). Boluses were washed prior to administration to remove any bromoform that may have accumulated on the outside of the bolus. The additional boluses were administered on day 69 per os. (oesophagus). The second measurement session began 10 days after said bolus administration, with animals entering the respiration chambers for a 48-hour period in groups of four.
as §1
Emissions of methane (CH4), hydrogen (H2) and carbon dioxide (CO2) were assessed in respiration chambers over 48 hour measurements and converted to a per-day-total. […] The data are combined for both feeds during measurement session 2 (cf. schedule table 16). P-values were calculated by single-factor ANOVA and differences were deemed particularly significant for p-value <0.05.

[8] = 260 mg/d (HIGH + 156), period 2

In the case of `BrC(Br)Br` [bromoform], the half-life in animals [1] is listed as 48 min, the Average animal liveweight ([2]; 156 mg/d (CON + 156)) is listed as 380 kg and the Average animal liveweight ([2]; 182 mg/d (LOW+156)) is listed as 387 kg. For the same compound, the Average animal liveweight ([2]; 208 mg/d (MED + 156)) was 376 kg, the Average animal liveweight ([2]; 260 mg/d (HIGH + 156)) was 369 kg and the “Dry matter intake” value ([2]; all tested doses) was “not significantly different; also recorded: not significantly altered”. For the same compound, the “Animal liveweight, treated versus untreated control” value ([2]; in vivo) was “about the same”, the “blood data, treated versus untreated control” value ([2]; in vivo) was “No differences” and the “Average dry matter intake” value ([2]; treatment group CON + 156) was 5.54 kg/day. The “Average dry matter intake” value ([2]; treatment group HIGH) was 5.54 kg/day, the “Average dry matter intake” value ([2]; treatment group HIGH + 260) was 4.47 kg/day and the “Average dry matter intake” value ([2]; treatment group LOW + 182) was 5.15 kg/day. The “Average dry matter intake” value ([2]; treatment group LOW, both feeds, session 2) was 5.11 kg/day, the “Average dry matter intake” value ([2]; treatment group MED) was 5.72 kg/day and the “Average dry matter intake” value ([2]; treatment group MED + 208) was 3.86 kg/day. The half-life in animals [3] was 1.2 h, the H2 (methane emissions [4]; HIGH, 450 mg/d) was 20.08^a g/d and the “CH4 production (g/day) decrease compared with CONTROL” value (methane emissions [4]; HIGH, about 450-580 mg/day) was “more than 99%”. The “CH4 yield (g/kg dry matter intake) decrease compared with CONTROL” value (methane emissions [4]; HIGH, about 450-580 mg/day) was “more than 99%”, the H2 (methane emissions [4]; LOW, 300 mg/d) was 20.60^a g/d and the “CH4 production (g/day) decrease compared with CONTROL” value (methane emissions [4]; LOW, about 300-400 mg/day) was “more than 99%”. The “CH4 yield (g/kg dry matter intake) decrease compared with CONTROL” value (methane emissions [4]; LOW, about 300-400 mg/day) was “more than 99%”, the “residues in meat and tissue from slaughtered steers” value [5] was “no residues” and the level in milk [6] was “no significant increase”. For the same compound, the CO2 (methane emissions [7]; 156 mg/d (CON + 156), period 2) was 5666 ± 327 g/day, the H2 (methane emissions [7]; 156 mg/d (CON + 156), period 2) was 7.9 ± 3.5 g/day and the CH4 (methane emissions [7]; 156 mg/d (CON + 156), period 2, all animals, average ± standard error) was 48.7 ± 29.5 g/day. For the same compound, the “methane emissions of individual animals” value (methane emissions [7]; 156 mg/day dose group (CON+156)) was “about 0.2 g/d and ~0 g/d and 76 g/d”, the “methane emissions as % of the average of the untreated control group” value (methane emissions [7]; 156 mg/day, one animal with partial knockdown) was “approximately 50%” and the CH4 (methane emissions [7]; 182 mg/d (LOW + 156), period 2) was 18.6 ± 18.2 g/day. The CO2 (methane emissions [7]; 182 mg/d (LOW + 156), period 2) was 5589 ± 295 g/day, the H2 (methane emissions [7]; 182 mg/d (LOW + 156), period 2) was 13.7 ± 4.7 g/day and the “methane inhibition, animals responding” value (methane emissions [7]; 182 mg/d (LOW+156)) was “full methane inhibition was observed for three of the four treated animals; also recorded: Partial inhibition was observed for 1 out of 4 animals”. For the same compound, the “methane emission compared to control animals” value (methane emissions [7]; 182 mg/d, fourth animal) was “approximately 50%”, the CH4 (methane emissions [7]; 208 mg/d (MED + 156), period 2) was -0.3 ± 0.5 g/day and the CO2 (methane emissions [7]; 208 mg/d (MED + 156), period 2) was 5011 ± 377 g/day. For the same compound, the H2 (methane emissions [7]; 208 mg/d (MED + 156), period 2) was 17.2 ± 3.5 g/day, the “methane inhibition” value (methane emissions [7]; 208 mg/d or more) was “full methane inhibition” and the CH4 (methane emissions [7]; [8]) was -0.2 ± 0.3 g/day. It also gave a CO2 (methane emissions [7]; [8]) of 5159 ± 308 g/day, an H2 (methane emissions [7]; [8]) of 17 ± 3.4 g/day and a CH4 (methane emissions [7]; Baleage, 156 mg/d) of 59.1 g/day. It also gave a CO2 (methane emissions [7]; Baleage, 156 mg/d) of 5251 g/day, an H2 (methane emissions [7]; Baleage, 156 mg/d) of 7.4 g/day and a CH4 (methane emissions [7]; Baleage, 182 mg/d) of 0.9 g/day. For the same compound, the CO2 (methane emissions [7]; Baleage, 182 mg/d) was 5202 g/day, the H2 (methane emissions [7]; Baleage, 182 mg/d) was 13.3 g/day and the CH4 (methane emissions [7]; Baleage, 208 mg/d) was -1.0 g/day. For the same compound, the CO2 (methane emissions [7]; Baleage, 208 mg/d) was 4919 g/day, the H2 (methane emissions [7]; Baleage, 208 mg/d) was 19.9 g/day and the CH4 (methane emissions [7]; Baleage, 260 mg/d) was 0.3 g/day. The CO2 (methane emissions [7]; Baleage, 260 mg/d) was 4645 g/day, the H2 (methane emissions [7]; Baleage, 260 mg/d) was 12.7 g/day and the CH4 (methane emissions [7]; Pasture, 156 mg/d) was 38.2 g/day. For the same compound, the CO2 (methane emissions [7]; Pasture, 156 mg/d) was 6081 g/day, the H2 (methane emissions [7]; Pasture, 156 mg/d) was 8.4 g/day and the CH4 (methane emissions [7]; Pasture, 182 mg/d) was 36.2 g/day. For the same compound, the CO2 (methane emissions [7]; Pasture, 182 mg/d) was 5977 g/day, the H2 (methane emissions [7]; Pasture, 182 mg/d) was 14.1 g/day and the CH4 (methane emissions [7]; Pasture, 208 mg/d) was 0.3 g/day. The CO2 (methane emissions [7]; Pasture, 208 mg/d) was 5104 g/day, the H2 (methane emissions [7]; Pasture, 208 mg/d) was 14.4 g/day and the CH4 (methane emissions [7]; Pasture, 260 mg/d) was -0.7 g/day. The CO2 (methane emissions [7]; Pasture, 260 mg/d) was 5673 g/day, the H2 (methane emissions [7]; Pasture, 260 mg/d) was 21.3 g/day and the “effective minimal daily dose” value (methane emissions [7]; cattle, about 378 kg) was 0.28 to 0.4 mg/kg/day. The “minimum dose for an effective mitigation of methanogenesis” value (methane emissions [7]; cattle, about 378 kg) was 104 to 156 mg/day, the “methane inhibition” value (methane emissions [7]; dose range of 0-104 mg/day, chamber session 1 (data not shown)) was “no substantial methane inhibition” and the “methane inhibition, animals responding” value (methane emissions [7]; doses equal to and greater than 156 mg/d) was 15 out of 16 animals.
